pKi: −log10 of the molar value. Where two headings read alike, the source gives them in different places.
Molecular target: human H4 receptor (Homo sapiens (Human), UniProt Q9H3N8)
Assay: Binding assay on recombinant human histamine H4 receptor ([3H]histamine competition, SK-N-MC cell membranes)
Details: [3H]histamine 10 nM, average of results
How it was run: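 Membranes from SK-N-MC cells stably or transiently transfected with human H4 receptor, prepared by homogenization and 30,000 g centrifugation in Tris/EDTA. Bound [3H]histamine separated by rapid filtration on PEI-treated GF/C filters, washed with ice-cold Tris/EDTA, counted by scintillation. '>' values denote highest concentration tested.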

[1] = membranes harvested with cell harvester, read-out: Cell Harvester Ki
[2] = membranes harvested with 96 well Brandel system, read-out: Brandel Ki

| SMILES | pKi [1] | pKi [2] |
| --- | --- | --- |
| N[C@H]1CCN(c2ccnc(NC3CCCC3)c2)C1 [Example 268, 4-[(3S)-3-Aminopyrrolidin-1-yl]-N-cyclopentylpyridin-2-amine] | 6.61 |  |
| N[C@H]1CCN(c2ccnc(NCc3ccccn3)c2)C1 [Example 258, 4-[(3S)-3-Aminopyrrolidin-1-yl]-N-(pyridin-2-ylmethyl)pyridin-2-amine] | < 5.00 |  |
| OCCCNc1nccc(N2CC3CCN[C@H]3C2)n1 (stereo in doubt) [Example 159, 3-({4-[(3aR,6aR)-Hexahydropyrrolo[3,4-b]pyrrol-5(1H)-yl]pyrimidin-2-yl}amino)propan-1-ol] | 6.58 |  |
| CNC1CN(c2ccnc(NCc3ccccn3)c2)C1 [Example 297, 4-[3-(Methylamino)azetidin-1-yl]-N-(pyridin-2-ylmethyl)pyridin-2-amine] | 5.81 |  |
| CN[C@@H]1CCN(c2cnnc(NCCCC(F)(F)F)c2)C1 [Example 386, 5-[(3R)-3-(Methylamino)pyrrolidin-1-yl]-N-(4,4,4-trifluorobutyl)pyridazin-3-amine] | 6.55 |  |
| c1cc(N2C[C@H]3CCN[C@H]3C2)nc(NC2CC2)n1 [Example 143, N-Cyclopropyl-4-[(3aR,6aR)-hexahydropyrrolo[3,4-b]pyrrol-5(1H)-yl]pyrimidin-2-amine] | 6.57 |  |
| CC(C)CNc1cc(N2CCN(C)CC2)ccn1 [Example 21, 4-(4-Methylpiperazin-1-yl)-N-(2-methylpropyl)pyridin-2-amine] |  | 7.29 |
| CN[C@@H]1CCN(c2ccnc(N[C@H](C)C3CCCCC3)c2)C1 [Example 209, N-[(1R)-1-Cyclohexylethyl]-4-[(3R)-3-(methylamino)pyrrolidin-1-yl]pyridin-2-amine] | 5.84 |  |
| CC(C)(CO)CNc1cc(N2CCNCC2)cnn1 [Example 366, 2,2-Dimethyl-3-[(5-piperazin-1-ylpyridazin-3-yl)amino]propan-1-ol] | < 5.00 |  |
| CN1CCN(c2ccnc(NCc3ccccc3)n2)CC1 [Example 165, N-Benzyl-4-(4-methylpiperazin-1-yl)pyrimidin-2-amine] | 6.14 |  |
| CC(C)(C)CNc1cc(N2C[C@H]3CCN[C@H]3C2)ccn1 [Example 293, N-(2,2-Dimethylpropyl)-4-[(3aR,6aR)-hexahydropyrrolo[3,4-b]pyrrol-5(1H)-yl]pyridin-2-amine] | 7.22 |  |
| CN[C@H]1CCN(c2cnnc(NCCCC(F)(F)F)c2)C1 [Example 389, 5-[(3S)-3-(Methylamino)pyrrolidin-1-yl]-N-(4,4,4-trifluorobutyl)pyridazin-3-amine] | 5.76 |  |
| c1cc(N2CCNCC2)nc(NCC2CC2)n1 [Example 66, Cyclopropylmethyl-(4-piperazin-1-yl-pyrimidin-2-yl)-amine] | 7.25 | 7.91 |
| c1cc(N2CCNCC2)nc(NC2CC2)n1 [Example 112, N-Cyclopropyl-4-piperazin-1-ylpyrimidin-2-amine] | 6.63 |  |
| NC1CN(c2cnnc(NC3CCCC3)c2)C1 [Example 326, 5-(3-Aminoazetidin-1-yl)-N-cyclopentylpyridazin-3-amine] | 5.56 |  |
| COCCNc1nccc(N2CCNCC2)n1 [Example 72, N-(2-Methoxyethyl)-4-piperazin-1-ylpyrimidin-2-amine] | 6.42 |  |

| SMILES | pKi [1] | pKi [2] |
| --- | --- | --- |
| NC1CN(c2ccnc(NCCCO)n2)C1 [Example 155, 3-{[4-(3-Aminoazetidin-1-yl)pyrimidin-2-yl]amino}propan-1-ol] | 6.13 |  |
| CC1C(Nc2cc(N3CC[C@H](N)C3)ccn2)C[C@H]2C[C@@H]1C2(C)C (stereo partly drawn) [Example 272, 4-[(3S)-3-Aminopyrrolidin-1-yl]-N-[(1S,5R)-2.6.6-trimethylbicyclo[3.1.1]hept-3-yl]pyridin-2-amine] | 5.68 |  |
| CN1CCN(c2ccnc(NCC(C)(C)O)n2)CC1 [Example 120] | 6.52 |  |
| c1ccc(CNc2nccc(N3CCNCC3)n2)nc1 [Example 157, 4-Piperazin-1-yl-N-(pyridin-2-ylmethyl)pyrimidin-2-amine] | 5.67 |  |
| COc1ccc(CNc2cc(N3CCNCC3)cnn2)cc1 [Example 347, N-(4-Methoxybenzyl)-5-piperazin-1-ylpyridazin-3-amine] | < 5.00 |  |
| CN[C@H]1CCN(c2ccnc(NCC(C)(C)O)c2)C1 [Example 242, 2-Methyl-1-({4-[(3S)-3-(methylamino)pyrrolidin-1 yl]pyridin-2-yl}amino)propan-2-ol] | < 5.00 |  |
| CN1CCN(c2ccnc(NCCc3ccccc3)c2)CC1 [Example 250, 4-(4-Methylpiperazin-1-yl)-N-(2-phenylethyl)pyridin-2-amine] | 6.18 |  |
| COCCNc1nccc(N2CC[C@H](N)C2)n1 [Example 128, 4-[(3S)-3-Aminopyrrolidin-1-yl]-N-(2-methoxyethyl)pyrimidin-2-amine] | 6.07 |  |
| C[C@@H]1[C@@H](Nc2nccc(N3CCNCC3)n2)C[C@H]2C[C@@H]1C2(C)C [Example 134, 4-Piperazin-1-yl-N-[(1S,2S,3S,5R)-2,6,6-trimethylbicyclo[3.1.1]hept-3-yl]pyrimidin-2-amine] | 6.16 |  |
| CNC1CN(c2cnnc(NC3CCCCC3)c2)C1 [Example 325, N-Cyclohexyl-5-[3-(methylamino)azetidin-1-yl]pyridazin-3-amine] | 6.10 |  |
| N[C@H]1CCN(c2ccnc(NCc3ccc(F)cc3)n2)C1 [Example 199, 4-[(3S)-3-Aminopyrrolidin-1-yl]-N-(4-fluorobenzyl)pyrimidin-2-amine] | 5.64 |  |
| CN[C@H]1CCN(c2ccnc(NC3CC3)c2)C1 [Example 235, N-Cyclopropyl-4-[(3S)-3-(methylamino)pyrrolidin-1-yl]pyridin-2-amine] | 6.39 |  |
| CC(C)(O)CNc1nccc(N2CC[C@H](N)C2)n1 [Example 110, 1-({4-[(3S)-3-Aminopyrrolidin-1-yl]pyrimidin-2-yl}amino)-2-methylpropan-2-ol] | 6.08 |  |
| c1cc(N2C[C@H]3CCN[C@H]3C2)cc(NCC2CCCC2)n1 [Example 261, N-(Cyclopentylmethyl)-4-[(3aR,6aR)-hexahydropyrrolo[3,4-b]pyrrol-5(1H)-yl]pyridin-2-amine] | 5.45 |  |
| CN[C@@H]1CCN(c2cnnc(NCc3ccoc3)c2)C1 [Example 387, N-(Furan-3-ylmethyl)-5-[(3R)-3-(methylamino)pyrrolidin-1-yl]pyridazin-3-amine] | 6.08 |  |

The remaining compounds from weak to strong by pKi [1], led by results:

| pKi [1] | SMILES | pKi [2] |
| --- | --- | --- |
| 6.61 | CNC1CN(c2ccnc(NCc3ccc(F)cc3)n2)C1 [Example 178, N-(4-Fluorobenzyl)-4-[3-(methylamino)azetidin-1-yl]pyrimidin-2-amine] |  |
| 6.72 | CN1CCN(c2ccnc(NC3C4C[C@H]5C[C@@H](C4)C[C@@H]3C5)c2)CC1 (stereo partly shown) [Example 207, Adamantan-2-yl-[4-(4-methyl-piperazin-1-yl)-pyridin-2-yl]-amine] |  |
| 6.78 | CCCCNc1cc(N2CC[C@H](NC)C2)ccn1 [Example 243] |  |
| 6.85 | N[C@H]1CCN(c2ccnc(NC3CCCCC3)n2)C1 [Example 129, 4-[(3S)-3-Aminopyrrolidin-1-yl]-N-cyclohexylpyrimidin-2-amine] |  |
| 6.89 | c1cc(N2CCNCC2)nc(NC2CC3CCC2C3)n1 (stereo not shown) [Example 133, N-Bicyclo[2.2.1]hept-2-yl-4-piperazin-1-ylpyrimidin-2-amine] |  |
| 7.00 | CC1C(Nc2cc(N3C[C@H]4CCN[C@H]4C3)ccn2)C[C@H]2C[C@@H]1C2(C)C (stereo partly drawn) [Example 287, 4-[(3aR,6aR)-Hexahydropyrrolo[3,4-b]pyrrol-5(1H)-yl]-N-[(1S,5R)-2,6,6-trimethylbicyclo[3.1.1]hept-3-yl]pyridin-2-amine] |  |
| 7.14 | c1cc(N2CCNCC2)nc(NC2CC3CCC2C3)n1 (stereo not shown) [Example 70, Bicyclo[2.2.1]hept-2-yl-(4-piperazin-1-yl-pyrimidin-2-yl)-amine] | 6.62 |
| 7.34 | CNC1CN(c2ccnc(NCC3CCCCC3)n2)C1 [Example 102, N-(Cyclohexylmethyl)-4-[3-(methylamino)azetidin-1-yl]pyrimidin-2-amine] |  |
| 7.34 | CN[C@@H]1CCN(c2ccnc(NCCOC)n2)C1 [Example 82, (2-Methoxy-ethyl)-[4-(3R)-(3-methylamino-pyrrolidin-1-yl)-pyrimidin-2-yl]-amine] |  |
| 7.34 | CNC1CN(c2ccnc(NCCOC)n2)C1 [Example 182, N-(2-Methoxyethyl)-4-[3-(methylamino)azetidin-1-yl]pyrimidin-2-amine] |  |
| 7.35 | CN[C@H]1CCN(c2ccnc(N[C@H]3C[C@H]4CC[C@]3(C)C4(C)C)c2)C1 [Example 206, 4-[(3S)-3-(Methylamino)pyrrolidin-1-yl]-N-[(1R,2S,4R)-1,7,7-trimethylbicyclo[2.2.1]hept-2-yl]pyridin-2-amine] |  |
| 7.36 | CC(C)(CO)CNc1nccc(N2CC[C@@H](N)C2)n1 [Example 153, 3-({4-[(3R)-3-Aminopyrrolidin-1-yl]pyrimidin-2-yl}amino)-2,2-dimethylpropan-1-ol] |  |
| 7.72 | CN[C@@H]1CCN(c2ccnc(NCc3ccccc3)n2)C1 [Example 174, N-Benzyl-4-[(3R)-3-(methylamine)pyrrolidin-1-yl]pyrimidin-2-amine] |  |
| 8.11 | c1cc(N2CCCNCC2)nc(NC2CC3CCC2C3)n1 (stereo not shown) [Example 195, N-Bicyclo[2.2.1]hept-2-yl-4-(1,4-diazepan-1-yl)pyrimidin-2-amine] |  |
| 8.57 | CC(C)CNc1nccc(N2CC[C@@H](N)C2)n1 [Example 23, 4-[(3R)-3-Aminopyrrolidin-1-yl]-N-(2-methylpropyl)pyrimidin-2-amine] |  |
| 8.78 | CN[C@@H]1CCN(c2ccnc(N[C@H]3C[C@H]4CC[C@]3(C)C4(C)C)n2)C1 [Example 190, 4-[(3R)-3-(Methylamino)pyrrolidin-1-yl]-N-[(1R,2S,4R)-1,7,7-trimethylbicyclo[2.2.1]hept-2-yl]pyrimidin-2-amine] |  |
